We go through two substances from patent US20100197765A1, “METHOD FOR PROMOTING THE EXPRESSION OF P53, AND P53 EXPRESSION PROMOTER FOR USE IN THE METHOD” (THE UNIVERSITY OF TOKUSHIMA, priority 2007, published 2010).

One series has as its system HepG2 cells. Description: apoptosis (Apoptotic evaluation 1) of siRNA-expressing HepG2 cells treated with 5-FU. The series is classed as cell-based, human. As to conditions: for basal apoptosis: HepG2, 0 μmol/L 5-FU; for proportion of apoptosis in response to 5-FU: HepG2, 5-FU 10, 30 μmol/L, 60 hours, concentration-dependent. On the procedure: Objective cells were treated with various anticancer agents, and then incubated with trypsin/EDTA to prepare cell suspensions. The cell suspensions were centrifuged and supernatants thereof were removed. Thereafter, the cell suspensions each were immobilized and stained with a solution of formaldehyde of 3.7%, Nonidet P40 of 0.5%, and 10 μg/mL of Hoechst33258 (Invitrogen) in PBS. […] The counting was performed with respect to at least 300 cells in one measurement.
Each type of the recombinant vectors was transfected into HepG2 cells for 18 hours in the same manner as in the above-described item (1). Each type of the transfection cells was treated with an anticancer agent “5-FU” having a predetermined concentration (0, 10, 30 μmol/L) for 60 hours. Then, the apoptosis (%) of the treated cells was examined according to “Apoptosis evaluation 1”. FIG. 1B is a graph showing apoptosis (%) in each type of the cells treated with 5-FU having a predetermined concentration (means±SD, n=3).

The subject of another series is p53. Description: p53 mRNA (Northern) and p53 protein (Western) expression in siRNA-expressing HepG2 cells. The series is classed as cell-based, human. On the procedure:
Western immunoblotting was performed according to Huez, I. et al. Mol. Endocrinol. 15 2197-2210 (2001) or Masuda, K., et al. PLoS Med. 5, e94 (2008). As a primary antibody, anti p53 antibody (“DO-1” or “FL-393”, Santa Cruz Biotechnology, Inc.), anti […] (“clone AC-15”, Sigma Chemical Co.), anti HA (“Y-11”, Santa Cruz Biotechnology Inc.), and anti L-VEGF (polyclonal anti L-VEGF antibody) mentioned in the Huez, I. et al. (2001) were used.
Total RNAs were extracted according to a guanidine thiocyanate method. Labeled cDNAs were produced using the following antisense primers, a klenow fragment (New England BioLabs, Inc., Inc.), and [α^−32P]dCTP, with the following cDNAs being templates. Thus obtained labeled cDNAs were used as probes for the Northern blotting.
Each type of the vectors was transfected into HepG2 cells for 18 hours in the same manner as in the above-described item (1). Then, the cells were treated in the presence of 5-FU (30 μmol/L) (+) or the absence of 5-FU (−). With respect to the cells treated for 8 hours, the expression level of p53 mRNA was analyzed by the Northern blotting. With respect to the cells treated for 12 hours, the expression level of p53 protein was analyzed by the Western immunoblotting. Analysis of protein also was performed with respect to β-actin protein that is an endogenous control (hereinafter, the same applies). […] In FIG. 1C, the first row from the top indicates expression of p53 mRNA, the second row indicates expression of gapdh mRNA, the third row indicates expression of p53 protein, and the fourth row indicates expression of 6-actin protein. Further, in FIG. 1C, “−” indicates the treatment in the absence of 5-FU and “+” indicates the treatment in the presence of 5-FU.

The subject of another series is p53-deleted cells HCT116. Description: apoptosis (TUNEL) in p53-deleted HCT116 cells with vegf siRNA and 5-FU. The series is classed as cell-based, human. As to conditions: p53-deleted cells HCT116, 5-FU treated, 60 hours. On the procedure:
Apoptotic cells were evaluated by a TUNEL staining method using in situ Cell Death Detection kit (Roche Diagnostic). […] The counting was performed with respect to at least 300 cells in one measurement.
Various types of cells were treated with 5-FU, which is an anticancer agent inducing apoptosis in a p53-dependent manner, and the sensitivity to apoptosis was analyzed. The vegf siRNA#1 vectors expressing siRNA#1, the vegf siRNA #2 vectors expressing siRNA #2, and the control siRNA vectors described above respectively were transfected into HCT 116 (parent cells) and p53-deleted cells HCT116. Then, the cells after 18 hours from the transfection was treated for 60 hours in the presence of […] of 5-FU (+) or in the absence of 5-FU (−). The proportion (%) of apoptosis positive cells in the thus-treated cells was calculated based on “Apoptotic evaluation 2” above (means±SD, n=4).

The test system of a further series is vegf IresRNA. Description: vegf IresRNA by Northern blotting in siRNA-transfected HCT116 cells. The series is classed as cell-based, human. As to conditions: HCT116, 18 hours after transfection, vs control cells. On the procedure:
(§1) Whether or not vegf siRNA promotes the apoptosis sensitivity of cells was examined. In the same manner as in Example A1 except that HCT116 cells (parent cells, wild-type p53) were used instead of the HepG2 cells (wild-type p53), the vegf siRNA #1 vectors expressing siRNA #1, the vegf siRNA #2 vectors expressing siRNA #2, and the control siRNA vectors described above were respectively transfected into the HCT116 cells (parent cells, wild-type p53). Then, with regard to the cells after 18 hours from the transfection, the expression levels of vegf mRNA and gapdh mRNA were analyzed by quantitative RT-PCR (means±SD, n=4) and the expression levels of vegf IresRNA and gapdh mRNA were analyzed by Northern blotting. Also, with regard to HCT116 cells not transfected with the above-described recombinant vectors, the analyses were conducted in the same manner. The quantitative RT-PCR was conducted in the same manner as in Example B1, except that a primer set for vegf mRNA was used.

A further series has as its system HCT116 cell strain. Description: tumor volume of si-vegf #1 HCT116 cell strain xenografted to nude mice. As to conditions: si-vegf #1 cells vs si-Control cells, subcutaneous, n=5. The series is classed as in vivo. The text has this: With regard to cells expressing siRNA against vegf, the effect thereof on the tumorigenicity in vivo was examined. Vegf siRNA #1 vectors expressing the above-described siRNA #1 were transfected into a HCT116 cell strain (wild-type p53) derived from human large bowel cancer, and the transfected cells were selected with an antibiotic blasticidin. The thus-obtained cell clone hereinafter is referred to as a si-vegf #1 cell strain. As a control, pcDNA6.2-GW/EmGFP-miR vectors (Invitrogen) to which a double-stranded oligonucleotide with a sequence (SEQ ID NO. 46: 5′-[…]-3′) having no homology to known vertebrate genes had been inserted were used (control siRNA vectors) as in the above. The […] cell strain was transfected with these control siRNA vectors in the same manner as in the above, and the transfected cells were selected with the antibiotic. The thus-obtained cell clone hereinafter is referred to as a si-Control cell strain. Then, the si-vegf #1 cell strain and the si-Control cell strain respectively were xenografted subcutaneously to femoral regions of nude mice, and the volume of the formed tumor was measured after the predetermined time (each n=5) in the same manner as in Example C2.

Another series relates to vegf mRNA. Description: vegf mRNA by quantitative RT-PCR in siRNA-transfected HCT116 cells. As to conditions: HCT116, 18 hours after transfection, ratio to gapdh mRNA. The series is classed as cell-based, human. On the procedure: From 1 μg of total RNA, cDNA was synthesized using SuperScriptII RNaseH(−) reverse transcriptase (Invitrogen), and PCR was performed using primers for amplification-purpose nucleic sequences with the cDNA being a template. The amplification and the quantitative analysis of PCR products were performed using Applied Biosystems 7500 (Applied Biosystems) by the method recommended by the manufacturer.
as §1

Where [1] appears, read: HepG2, absence of 5-FU, vs control cells.
Where [2] appears, read: HepG2, presence of 5-FU (30 μmol/L), mRNA 8 hours, protein 12 hours.

Take “siRNA #1: siRNA against vegf mRNA, SEQ ID NO 3/4, antisense complementary to bases 1062-1082 in SEQ ID NO. 1; expressed from pcDNA6.2-GW/EmGFP-miR vector (sense GCAUUGGACUUGCCUUGCUNN; antisense AGCAAGGCAAGGCUCCAAUGCNN)”: in the series on HepG2 cells, the basal apoptosis entry was “not affected”. For the same substance, in the series with HepG2 cells, the “proportion of apoptosis in response to 5-FU” value was “increased markedly”. In addition, the “expression of p53 mRNA and p53 protein” value is reported as “increased” with p53 (setting [1]) and “increased markedly” with p53 (setting [2]). In addition, the “increase in proportion of apoptosis on siRNA expression” value with p53-deleted cells HCT116 was “little increase”. For the same substance, the “amount of the expressed vegf IresRNA” value with vegf IresRNA is listed as “decreased”. Further, in the series on HCT116 cell strain, the “tumor formation and tumor growth” value was “significant suppression”. The “amount of the vegf mRNA expressed” value with vegf mRNA is given as “decreased markedly”.

Consider “siRNA #2: siRNA against vegf mRNA, SEQ ID NO 5/6, antisense complementary to bases 1067-1087 in SEQ ID NO. 1; vector-expressed (sense GGAGCCUUGUUGCUGCUCUNN; antisense AGAGCAGCAAGGCAAGGCUCCNN)”, for which, in the series on HepG2 cells, the basal apoptosis result is recorded as “not affected” and the “proportion of apoptosis in response to 5-FU” value was “increased markedly”. The “expression of p53 mRNA and p53 protein” value in the series with p53 (setting [1]) is “increased”. In addition, in the series with p53 (setting [2]), the “expression of p53 mRNA and p53 protein” value was “increased markedly”. Moreover, the “increase in proportion of apoptosis on siRNA expression” value in the series on p53-deleted cells HCT116 is reported as “little increase”. Also, the “amount of the expressed vegf IresRNA” value in the series on vegf IresRNA is on record as “decreased markedly”. In the series on vegf mRNA, the “amount of the vegf mRNA expressed” value is given as “decreased markedly”.
